This note sets out measurements from ChEMBL document CHEMBL1153399, “Design, synthesis and SAR studies of tripeptide analogs with the scaffold 3-phenylpropane-1,2-diamine as aminopeptidase N/CD13 inhibitors” (Bioorg Med Chem, 2009).

SMILES strings stand for the structures.

One experiment addresses T1, Aminopeptidase N (Sus scrofa, UniProt P15145).
T1 sequence (P15145 whole entry): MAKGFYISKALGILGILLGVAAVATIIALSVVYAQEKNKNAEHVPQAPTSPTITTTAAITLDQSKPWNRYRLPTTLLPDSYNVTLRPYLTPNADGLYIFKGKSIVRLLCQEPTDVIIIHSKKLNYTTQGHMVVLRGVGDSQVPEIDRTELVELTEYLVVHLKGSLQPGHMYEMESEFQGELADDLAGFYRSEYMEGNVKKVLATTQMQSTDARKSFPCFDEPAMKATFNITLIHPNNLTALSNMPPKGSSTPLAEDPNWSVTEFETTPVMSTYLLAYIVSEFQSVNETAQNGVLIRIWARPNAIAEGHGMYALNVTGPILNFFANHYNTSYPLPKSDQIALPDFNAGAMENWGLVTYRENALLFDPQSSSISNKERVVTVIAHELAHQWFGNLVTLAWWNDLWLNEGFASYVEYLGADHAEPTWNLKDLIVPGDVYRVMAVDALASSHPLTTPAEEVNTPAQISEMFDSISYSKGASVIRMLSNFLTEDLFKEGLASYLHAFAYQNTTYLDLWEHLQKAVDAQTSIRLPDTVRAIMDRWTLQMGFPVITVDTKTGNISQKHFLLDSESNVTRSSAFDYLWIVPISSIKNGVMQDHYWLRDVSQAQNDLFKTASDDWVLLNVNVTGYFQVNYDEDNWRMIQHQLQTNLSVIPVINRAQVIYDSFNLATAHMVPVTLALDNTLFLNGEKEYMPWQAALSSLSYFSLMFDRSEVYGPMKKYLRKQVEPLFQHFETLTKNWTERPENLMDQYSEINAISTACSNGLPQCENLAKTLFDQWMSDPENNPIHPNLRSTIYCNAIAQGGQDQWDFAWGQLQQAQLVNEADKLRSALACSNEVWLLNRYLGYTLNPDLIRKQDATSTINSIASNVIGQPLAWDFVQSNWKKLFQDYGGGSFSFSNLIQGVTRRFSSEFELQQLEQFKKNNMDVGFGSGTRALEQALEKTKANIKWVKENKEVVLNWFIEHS
As to the kind of experiment: Inhibition of pig kidney microsomal APN.

In a further experiment the test system is HL-60. Description: Cytotoxicity against human HL60 cells after 48 hrs by MTT assay. It is filed as functional, cell-based. The settings on record: HL-60, 48 h. (In general: Tetrazolium dyes change colour on reduction, which living cells bring about.)

On to `CC(C)C[C@H](NC(=O)N[C@@H](Cc1ccccc1)C(=O)NC[C@H](N)Cc1ccccc1)C(=O)O`, for which the IC50 on Aminopeptidase N is 181 µM.

Consider `N[C@@H](CNC(=O)[C@H](Cc1ccccc1)NC(=O)CCCCl)Cc1ccccc1`, for which, at Aminopeptidase N, inhibition was half-maximal at 693 µM (IC50).

On to `CSCC[C@H](NC(=O)N[C@@H](CS)C(=O)NC[C@H](N)Cc1ccccc1)C(=O)O`, for which the IC50 is 1180 µM in the experiment with HL-60 and 16.5 µM at Aminopeptidase N.

The molecule `N[C@@H](CNC(=O)[C@H](Cc1ccccc1)NC(=O)c1ccc([N+](=O)[O-])cc1)Cc1ccccc1` gave a 50% inhibitory concentration (IC50) against Aminopeptidase N of 1390 µM.

On to `NCCCC[C@H](NC(=O)N[C@@H](Cc1ccccc1)C(=O)NC[C@H](N)Cc1ccccc1)C(=O)O`, for which the results for the concentration for half-maximal inhibition (IC50) with HL-60 and at Aminopeptidase N were 1490 µM and 89.5 µM, respectively.

As to `CSCC[C@H](NC(=O)N[C@@H](Cc1ccccc1)C(=O)NC[C@H](N)Cc1ccccc1)C(=O)O`, the IC50 was 270 µM in the experiment with HL-60 and 8.8 µM on Aminopeptidase N.

The molecule `NCCC[C@H](NC(=O)N[C@@H](CS)C(=O)NC[C@H](N)Cc1ccccc1)C(=O)O` gave an IC50 on Aminopeptidase N of 33.2 µM.

Regarding `N[C@@H](CNC(=O)[C@H](CS)NC(=O)N[C@@H](Cc1ccccc1)C(=O)O)Cc1ccccc1`, the IC50 came out at 1060 µM in the experiment with HL-60 and 9.8 µM against Aminopeptidase N.

In the case of `N[C@@H](CNC(=O)[C@H](CS)NC(=O)NCC(=O)O)Cc1ccccc1`, the half-maximal inhibitory concentration (IC50) against Aminopeptidase N turned out to be 174 µM.

For the molecule `NCCCCCC(=O)N[C@@H](CS)C(=O)NC[C@H](N)Cc1ccccc1`, at Aminopeptidase N, the half-inhibitory concentration (IC50) was determined as 202 µM.

At Aminopeptidase N, `CC(C)[C@H](NC(=O)N[C@@H](Cc1ccccc1)C(=O)NC[C@H](N)Cc1ccccc1)C(=O)O` had an IC50 of 58.5 µM. Compared with the last molecule, the IC50 is about 3.5-fold lower.

`N[C@@H](CNC(=O)[C@H](Cc1ccccc1)NC(=O)c1cc([N+](=O)[O-])cc([N+](=O)[O-])c1)Cc1ccccc1` returned an IC50 at Aminopeptidase N of 277 µM.

On to `N[C@@H](CNC(=O)[C@H](Cc1ccccc1)NC(=O)c1ccc(Cl)cc1Cl)Cc1ccccc1`, for which half-maximal inhibition on Aminopeptidase N (IC50) was put at 2260 µM.

For `COc1ccc(C(=O)N[C@@H](Cc2ccccc2)C(=O)NC[C@H](N)Cc2ccccc2)cc1`, the IC50 at Aminopeptidase N was determined as 174 µM. Against the preceding molecule, the IC50 is about 13-fold lower.

Molecule `CC(C)C[C@H](NC(=O)N[C@@H](Cc1ccc(O)cc1)C(=O)O)C(=O)NC[C@H](N)Cc1ccccc1` yielded a half-inhibitory concentration (IC50) against Aminopeptidase N of 107 µM.

In the case of `N[C@@H](CNC(=O)[C@H](Cc1ccccc1)NC(=O)N[C@H](CS)C(=O)O)Cc1ccccc1`, inhibition against Aminopeptidase N was half-maximal at 49.2 µM (IC50). This IC50 lies about 2.2-fold lower than the previous one.

On to `CC(C)C[C@H](NC(=O)NCC(=O)O)C(=O)NC[C@H](N)Cc1ccccc1`, for which 3240 µM corresponded to half-maximal inhibition against Aminopeptidase N (IC50).

At Aminopeptidase N, `N[C@@H](CNC(=O)[C@H](CS)NC(=O)c1ccc(Cl)cc1Cl)Cc1ccccc1` came in with a half-maximal inhibitory concentration (IC50) of 1050 µM. This IC50 is about 3.1-fold lower than that of the molecule before.

In turn, `CC[C@H](C)[C@H](NC(=O)N[C@@H](CC(C)C)C(=O)NC[C@H](N)Cc1ccccc1)C(=O)O` returned an IC50 against Aminopeptidase N of 148 µM.

Take `CC(C)C[C@H](NC(=O)N[C@@H](C)C(=O)O)C(=O)NC[C@H](N)Cc1ccccc1`: half-maximal inhibition against Aminopeptidase N (IC50) required 522 µM.

`CC(C)C[C@H](NC(=O)CCCCCN)C(=O)NC[C@H](N)Cc1ccccc1` showed a half-inhibitory concentration (IC50) against Aminopeptidase N of 1460 µM.

Molecule `NCCCCCC(=O)N[C@@H](Cc1ccccc1)C(=O)NC[C@H](N)Cc1ccccc1` returned an IC50 against Aminopeptidase N of 1540 µM.

As for `NCCCC[C@H](NC(=O)N[C@@H](CS)C(=O)NC[C@H](N)Cc1ccccc1)C(=O)O`, the IC50 in the experiment with HL-60 is 290 µM; at Aminopeptidase N it was 8.6 µM.

Turning to `CC(C)C[C@H](NC(=O)N[C@@H](CS)C(=O)NC[C@H](N)Cc1ccccc1)C(=O)O`, the concentration for half-maximal inhibition (IC50) in the experiment with HL-60 was 2660 µM; on Aminopeptidase N it was 45 µM.

For `N[C@@H](CNC(=O)[C@H](CS)NC(=O)N[C@H](CS)C(=O)O)Cc1ccccc1`, the results for the IC50 with HL-60 and on Aminopeptidase N were 540 µM and 10.3 µM, respectively.

For `N[C@@H](CNC(=O)[C@H](Cc1ccccc1)NC(=O)CCc1ccccc1)Cc1ccccc1`, the concentration for half-maximal inhibition (IC50) against Aminopeptidase N came to 366 µM.

As for `CC[C@H](C)[C@H](NC(=O)N[C@@H](Cc1ccccc1)C(=O)NC[C@H](N)Cc1ccccc1)C(=O)O`, it took 158 µM to reach half-maximal inhibition against Aminopeptidase N (IC50).

On Aminopeptidase N, `CC[C@H](C)[C@H](NC(=O)N[C@@H](CS)C(=O)NC[C@H](N)Cc1ccccc1)C(=O)O` had a concentration for half-maximal inhibition (IC50) of 14.8 µM. This IC50 is about 11-fold lower than that of the molecule before.

In turn, `CC(C)C[C@H](NC(=O)N[C@@H](CC(C)C)C(=O)NC[C@H](N)Cc1ccccc1)C(=O)O` yielded an IC50 against Aminopeptidase N of 142 µM.

The molecule `CSCC[C@H](NC(=O)N[C@@H](CC(C)C)C(=O)NC[C@H](N)Cc1ccccc1)C(=O)O` gave an IC50 against Aminopeptidase N of 30.4 µM.

Take `CC(C)[C@H](NC(=O)N[C@@H](CS)C(=O)NC[C@H](N)Cc1ccccc1)C(=O)O`: the IC50 at Aminopeptidase N turned out to be 58.8 µM. Against the preceding molecule, the IC50 is about 1.9-fold higher.

As usually defined, the IC50 is the midpoint of a concentration-inhibition curve. High values mean weaker potency, low ones greater potency.
